Test results: ChEMBL document CHEMBL1132794, “Structure-based design of six novel classes of nonpeptide antagonists of the bradykinin B2 receptor” (Bioorg Med Chem Lett, 2000)

Target: T1, B2 bradykinin receptor (Homo sapiens, UniProt P30411)
T1 sequence (P30411 whole entry): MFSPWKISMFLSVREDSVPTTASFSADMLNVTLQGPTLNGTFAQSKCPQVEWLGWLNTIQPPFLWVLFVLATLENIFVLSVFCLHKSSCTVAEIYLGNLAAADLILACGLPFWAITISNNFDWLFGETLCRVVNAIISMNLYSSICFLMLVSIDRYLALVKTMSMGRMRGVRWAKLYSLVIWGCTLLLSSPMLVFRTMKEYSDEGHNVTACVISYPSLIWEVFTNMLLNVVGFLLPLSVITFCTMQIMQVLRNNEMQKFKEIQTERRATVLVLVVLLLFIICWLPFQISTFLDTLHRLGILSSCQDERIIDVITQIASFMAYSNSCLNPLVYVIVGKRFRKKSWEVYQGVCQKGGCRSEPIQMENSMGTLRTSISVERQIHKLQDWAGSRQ
Experiment: Compound was assayed for binding against the human Bradykinin receptor B2 expressed in CHO cells; 0.2-16
Type: cell-based
Settings: not given; call rule not given here

`N=C(N)NCCC[C@@H]1NC(=O)N2C3CCCCC3C[C@H]2C(=O)N2Cc3ccccc3C[C@@H]2C(=O)NCC[C@@H](NC(=O)CCc2ccccc2)C(=O)CCNC1=O` (stereo partly specified) was tested, and the Kd was 0.2 µM.

Same assay, conditions: cho

`NCCCC[C@@H]1NC(=O)[C@H](c2ccccc2)NC(=O)[C@H](CNC(=O)Cc2ccccc2)NC(=O)[C@H]2Cc3ccccc3CN2C(=O)[C@@H]2CC3CCCCC3N2C(=O)[C@H](CN)NC1=O` (stereo partly specified) was tested, and the Kd was 0.2 µM.

Target: T1, B2 bradykinin receptor
Experiment: Compound was assayed for binding against the human Bradykinin receptor B2 expressed in CHO cells; NA means Inactive
Type: cell-based
Settings: not given

`NCCCC[C@H](C(=O)NCc1ccc(CN)cc1)n1cccc1C(=O)NCCc1ccccc1` was tested, and the Kd was “Not Active”.
For `N=C(N)NC[C@H]1C[C@@H](OCc2ccccc2)CN1C(=O)c1ccccc1`, the Kd was “Not Active”.
`NC[C@H]1C[C@@H](OCc2ccccc2)CN1C(=O)c1ccccc1` was tested, and the Kd was “Not Active”.

Target: T1, B2 bradykinin receptor
Experiment: Compound was assayed for binding against the human Bradykinin receptor B2 expressed in CHO cells
Type: cell-based
Settings: not given

First: NCc1cccc(Cn2ccc3c2C(=O)C(Cc2ccccc2)(Cc2ccccc2)CC3)c1
Second: NCCCN1C(=O)C(CN)N=C(c2ccccc2)c2cc(N(Cc3ccccc3)Cc3ccccc3)ccc21 (stereo unspecified)
The Kd of the first is 1.8-fold higher: 7.6 µM for the first, 4.3 µM for the second.

First: NCc1ccc(CNC(=O)[C@@H](CN)n2cccc2CNC(=O)CC2CCCCC2)cc1
Second: NCc1ccc(CNC(=O)[C@@H](CN)n2cccc2CNC(=O)C(c2ccccc2)C2CCCCC2)cc1 (stereo partly specified)
The Kd of the first is 5.9-fold higher: 101 µM for the first, 17 µM for the second.

Going from `NC(N)=NC[C@H]1C[C@@H](OCc2ccccc2)CN1C(=O)c1ccc2ccccc2c1` to `NC[C@H]1C[C@@H](OCc2ccccc2)CN1C(=O)c1ccc2ccccc2c1`, the Kd rises from 15 µM to 66 µM (4.4-fold).

Compared with `N=C(N)NCC1N=C(c2ccccc2)c2cc(N(Cc3ccccc3)Cc3ccccc3)ccc2N(CCCN=C(N)N)C1=O` (stereo unspecified), `N=C(N)NCCC1N=C(c2ccccc2)c2cc(N(Cc3ccccc3)Cc3ccccc3)ccc2N(CCCN=C(N)N)C1=O` (stereo unspecified) is 2.7-fold lower in Kd: 12 µM for the first, 4.5 µM for the second.

`CCCCc1ccnc([C@H](CC2CCCCC2)NC(=O)c2ccc(CN)cc2)c1` and `CCCCc1ccnc([C@H](CC2CCCCC2)NC(=O)c2ccc(CNC(=N)N)cc2)c1` are within 1.5-fold of each other in Kd: 7.4 µM for the first, 5 µM for the second.

Compared with `NCCCC[C@H](C(=O)NCc1ccc(CN)cc1)n1cccc1C(=O)NC(Cc1ccccc1)c1ccccc1` (stereo partly specified), `NCCCN1C(=O)C(CCN)N=C(c2ccccc2)c2cc(N(Cc3ccccc3)Cc3ccccc3)ccc21` (stereo unspecified) is 1.9-fold lower in Kd: 28 µM for the first, 15 µM for the second.

Compared with `CCCCc1ccnc([C@H](CC2CCCCC2)NC(=O)CCCCN)c1`, `CCCCc1ccnc([C@H](CC2CCCCC2)NC(=O)CCCCN(CCCC)CCCC)c1` is 2.7-fold lower in Kd: 62 µM for the first, 23 µM for the second.

`CCCCC1(CCCC)Oc2cccc(NC(=O)c3ccc(CN)cc3)c2O1` and `CCCCC1(CCCC)Oc2cccc(N(CCCN)C(=O)c3ccc(CN)cc3)c2O1` are within 1.5-fold of each other in Kd: 13 µM for the first, 14 µM for the second.
